Results published in ChEMBL document CHEMBL5131509 (Eur J Med Chem, 2022).
Activity calls are given as the source filed them. The rule behind the calls is not given here.

Tests used:
in vitro [1] = details: PAMPA
Description: (§1) Permeability of compound incubated for 3 hrs by UV plate reader based PAMPA assay

Vero C1008 = details: chlorocebus sabaeus, vero c1008, 48 h
Description: (§2) Cytotoxicity against African Green monkey Vero E6 cells assessed as reduction in cell viability measured after 48 hrs by MTT assay

in vitro [2] = details: chlorocebus sabaeus, Vero E6 cells
Description: as §2

[3] = Selectivity ratio of CC50 for African Green monkey Vero E6 cells to IC50 for SARS-CoV-2; format: toxicity, Vero C1008
SARS-CoV-2 = experiment: Antiviral activity against SARS-CoV-2 infected in African Green monkey Vero cells assessed as inhibition of viral cytopathic effect measured after 72 hrs by inverted microscopic method; format: functional, organism-based, Vero E6; details: Severe acute respiratory syndrome coronavirus 2, Vero C1008, 72 h
Vero E6 = format: cell-based; details: Chlorocebus aethiops, time 1.0 hrs
[4] = Metabolic stability of the compound in human liver microsomes S9 fraction preincubated with NADPH for 10 mins followed by compound addition at 50 uM measured upto 360 mins by HPLC analysis; format: ADME, subcellular; details: read-out: Stability
[5] = Stability of compound in human plasma at 100 uM by HPLC analysis; format: ADME, cell-free; details: read-out: Stability
in vitro [6] = details: chlorocebus sabaeus, Vero E6 cells; remark: listed apart in the source
Description: Cytotoxicity against African green monkey Vero E6 cells assessed as reduction in cell viability preincubated for 2 hrs followed by SARS-CoV-2 addition measured after 24 hrs by CPE assay

[7] = pampa, 3 h
Description: as §1

[8] = Oral bioavailability in rat at 5 mg/kg; format: ADME, organism-based; details: in vivo

CNC(=C[N+](=O)[O-])NCCSCc1ccc(CN(C)C)o1 [RANITIDINE]
Papp at 3 h (in vitro [1]): 1.6 ×10⁻⁶ cm/s

O=C(Nc1ccc(N2CCCCC2)cc1)c1cc(Cl)ccc1O
Papp at 3 h (in vitro [1]): 43.3 ×10⁻⁶ cm/s | CC50 (Vero C1008): 65.9 µM

O=C(Nc1cccc(F)c1)c1cc(Cl)ccc1O
Papp at 3 h (in vitro [1]): 3.7 ×10⁻⁶ cm/s | CC50 (Vero C1008): 3.63 µM

Cc1ccc(C(=O)Nc2ccc([N+](=O)[O-])cc2Cl)c(O)c1
Papp at 3 h (in vitro [1]): 6.1 ×10⁻⁶ cm/s | CC50 (Vero C1008): 21.6 µM

O=C(Nc1ccc(O)cc1)c1cc(Cl)ccc1O
Papp at 3 h (in vitro [1]): 33.1 ×10⁻⁶ cm/s | CC50 at 48 h (in vitro [2]): > 100 µM

CC(C)(C)c1cccc(NC(=O)c2cc(Cl)ccc2O)c1
selectivity ratio [3]: 1.6 | Papp at 3 h (in vitro [1]): 18.7 ×10⁻⁶ cm/s | CC50 (Vero C1008): 2.36 µM | IC50 (SARS-CoV-2): 1.51 µM

O=C(Nc1ccccc1)c1cc(Cl)ccc1O
Papp at 3 h (in vitro [1]): 16 ×10⁻⁶ cm/s | CC50 (Vero C1008): 19.2 µM | IC50 (SARS-CoV-2): 8.59 µM

Cc1cccc(CNC(=O)c2cc(Cl)ccc2O)c1
Papp at 3 h (in vitro [1]): 28.4 ×10⁻⁶ cm/s | CC50 (Vero C1008): 82.4 µM

O=C(Nc1ccc([N+](=O)[O-])cc1Cl)c1cc(F)ccc1O
Papp at 3 h (in vitro [1]): 30.7 ×10⁻⁶ cm/s | CC50 (Vero C1008): 8.15 µM

O=C(Nc1ccc([N+](=O)[O-])c(Cl)c1)c1cc(Cl)ccc1O
inhibition (Vero E6): Active | remaining at 6 h, 50 µM [4]: 41% | remaining at 100 µM [5]: 78% | IC50 (SARS-CoV-2): 0.057 µM

O=C(Nc1ccc(F)c(Cl)c1)c1cc(Cl)ccc1O
Papp at 3 h (in vitro [1]): 11.5 ×10⁻⁶ cm/s | CC50 (Vero C1008): 2.44 µM

Cc1ccc(O)c(C(=O)Nc2ccc([N+](=O)[O-])cc2Cl)c1
Papp at 3 h (in vitro [1]): 20.9 ×10⁻⁶ cm/s | CC50 (Vero C1008): 5.68 µM

COc1ccc2cc1Oc1ccc(cc1)C[C@H]1c3c(cc4c(c3Oc3cc5c(cc3OC)CCN(C)[C@@H]5C2)OCO4)CCN1C [CEPHARANTHINE]
IC50 (SARS-CoV-2): 2.8 µM

O=C(Nc1cccc(C(F)(F)F)c1)c1cc(Cl)ccc1O
remaining at 6 h, 50 µM [4]: 47% | Papp at 3 h (in vitro [1]): 4.2 ×10⁻⁶ cm/s | CC50 at 24 h (in vitro [6]): 100 µM | CC50 (Vero C1008): 5.95 µM | IC50 (SARS-CoV-2): 0.49 µM

O=C(Nc1ccc([N+](=O)[O-])cc1)c1cc(Cl)ccc1O
permeability [7]: 12.4 10^-6 cm/s | IC50 (SARS-CoV-2): 1.11 µM

O=C(Nc1ccc(F)cc1)c1cc(Cl)ccc1O
CC50 (Vero C1008): 6.78 µM | permeability [7]: 18.2 10^-6 cm/s

O=C(Nc1ccc(O[C@@H]2O[C@H](CO)[C@@H](O)[C@H](O)[C@H]2O)cc1)c1cc(Cl)ccc1O
Papp at 3 h (in vitro [1]): 1.9 ×10⁻⁶ cm/s | CC50 (Vero C1008): > 100 µM

O=C(Nc1ccc(C(F)(F)F)cc1)c1cc(Cl)ccc1O
Papp at 3 h (in vitro [1]): 6.9 ×10⁻⁶ cm/s | IC50 (SARS-CoV-2): 0.38 µM

Cc1c(O)cccc1C(=O)N[C@@H](CSc1ccccc1)[C@H](O)CN1C[C@H]2CCCC[C@H]2C[C@H]1C(=O)NC(C)(C)C
IC50 (SARS-CoV-2): 3.3 µM

Cc1ccc(CNC(=O)c2cc(Cl)ccc2O)cc1
Papp at 3 h (in vitro [1]): 42.6 ×10⁻⁶ cm/s | CC50 (Vero C1008): 47.7 µM

O=C(Nc1ccc([N+](=O)[O-])cc1Cl)c1cc(Cl)ccc1O [NICLOSAMIDE]
inhibition (Vero E6): Active | Papp at 3 h (in vitro [1]): 8.5 ×10⁻⁶ cm/s | CC50 (Vero C1008): 1.03 µM | IC50 (SARS-CoV-2): 0.4 µM | bioavailability [8]: 10%

O=C(Nc1cccc(Cl)c1)c1cc(Cl)ccc1O
remaining at 6 h, 50 µM [4]: 33% | Papp at 3 h (in vitro [1]): 8.6 ×10⁻⁶ cm/s | CC50 (Vero C1008): 2.46 µM | IC50 (SARS-CoV-2): 0.39 µM

O=C(Nc1cccc([N+](=O)[O-])c1)c1cc(Cl)ccc1O
Papp at 3 h (in vitro [1]): 19.5 ×10⁻⁶ cm/s | CC50 (Vero C1008): 3.53 µM | IC50 (SARS-CoV-2): 1.29 µM

O=C(Nc1ccc([N+](=O)[O-])cc1Cl)c1ccccc1O
selectivity ratio [3]: 1.2 | Papp at 3 h (in vitro [1]): 15.3 ×10⁻⁶ cm/s | CC50 at 24 h (in vitro [6]): 100 µM | CC50 (Vero C1008): 2.03 µM | IC50 (SARS-CoV-2): 1.68 µM

O=C(Nc1ccc([N+](=O)[O-])cc1Cl)c1ccccc1
Papp at 3 h (in vitro [1]): 42.2 ×10⁻⁶ cm/s | CC50 (Vero C1008): > 100 µM

O=C(Nc1cccc(O)c1)c1cc(Cl)ccc1O
Papp at 3 h (in vitro [1]): 15.9 ×10⁻⁶ cm/s | CC50 at 48 h (in vitro [2]): > 100 µM
